Earlier results, collected in publication PMC12123727 (BMC Cancer, 2025).
Where two headings read alike, the source gives them in different places.

Legend:
advanced solid tumor = settings: combined with pazopanib, follow-up, cited from earlier work
[1] = test system: r/r B cell NHL or chronic lymphocytic leukemia; settings: cited from earlier work
[2] = test system: Relapsed/Refractory Lymphoma; settings: cited from earlier work
[3] = PCYC-0403, r/r FL patients (n = 14)

CN(C)Cc1c(C(=O)NCCOc2ccc(C(=O)NO)cc2)oc2ccccc12 [abexinostat, Abexinostat]
median duration of treatment in exceptional responders (advanced solid tumor; range 39.8–133 +): 44.1 months
time on treatment of one patient with RCC (advanced solid tumor): > 11 years
median OS ([1]; PCYC-0401, DLBCL): 10.2 months
median PFS ([1]; PCYC-0401, DLBCL): 2.8 months
median OS ([1]; PCYC-0401, FL): not reached
median PFS ([1]; PCYC-0401, FL): 10.2 months
ORR ([1]; PCYC-0401, patients with DLBCL, 5/16): 31%
ORR ([1]; PCYC-0401, patients with FL, 9/16): 56%
ORR ([2]; PCYC-0403, mantle cell lymphoma, 3/11): 27.3%
median PFS ([2]; PCYC-0403, mantle cell lymphoma): 3.9 months
CR, patients [2, 3]: 1
PR, patients [2, 3]: 8
ORR ([2]; PCYC-0403, r/r FL patients, 9/14): 64.3%
DCR ([2]; PCYC-0403, r/r FL patients, 12/14): 85.7%
median PFS ([2]; PCYC-0403, r/r FL patients): 20.5 months
